Measurements taken from PMC7615053 (Nature methods, 2023).
Like-named read-outs stand apart in the source and are kept apart here. Values belong to the compound of their own block, whether it stands above or below them.

Experiments:
[1] = system: green fluorescent NE indicator prototype (sperm whale Alpha-1 AR); assay: Fluorescence response of the green NE indicator prototype; format: cell-based; conditions: green prototype with fluorescent protein module from dLight1.3b
swAlpha-1 AR [2] = format: cell-based, sperm whale; conditions: NE 10 μM, wild-type swAlpha-1 AR, HEK293T
nLightG [3] = target: T1, nLightG (Physeter macrocephalus, UniProt A0A2Y9EW94); assay: Intracellular calcium signaling; format: cell-based, sperm whale; conditions: NE 10 μM, HEK293T
T1 sequence (A0A2Y9EW94 with tags, fused parts or gaps): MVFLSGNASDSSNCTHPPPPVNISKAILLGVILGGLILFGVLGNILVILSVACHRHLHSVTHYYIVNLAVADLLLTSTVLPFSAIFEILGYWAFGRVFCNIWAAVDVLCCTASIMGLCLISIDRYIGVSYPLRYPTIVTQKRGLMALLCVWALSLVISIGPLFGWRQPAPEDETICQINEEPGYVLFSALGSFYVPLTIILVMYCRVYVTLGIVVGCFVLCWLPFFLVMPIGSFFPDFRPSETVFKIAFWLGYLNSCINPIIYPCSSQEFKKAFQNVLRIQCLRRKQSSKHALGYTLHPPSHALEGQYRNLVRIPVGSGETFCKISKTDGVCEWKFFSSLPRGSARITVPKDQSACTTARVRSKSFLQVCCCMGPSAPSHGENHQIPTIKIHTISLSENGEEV

[4] = target: T2, sperm whale-based indicator (Alpha-1 AR, red prototype) (Physeter macrocephalus, UniProt A0A2Y9EW94); assay: Dose-response of the sperm whale-based red indicator prototype in HEK293T cells; format: cell-based
T2 sequence (A0A2Y9EW94 with tags, fused parts or gaps): T1 sequence (A0A2Y9EW94 with tags, fused parts or gaps)

nLightR [5] = target: T3, nLightR (Physeter macrocephalus, UniProt A0A2Y9EW94); assay: NanoBiT complementation assay in HEK293T cells; format: cell-based, sperm whale; conditions: NE 10 μM
T3 sequence (A0A2Y9EW94 with tags, fused parts or gaps): T1 sequence (A0A2Y9EW94 with tags, fused parts or gaps)

nLightR [6] = target: T3, nLightR; assay: Confocal imaging of nLightR in HEK293T cells; format: cell-based, sperm whale; conditions: for fluorescence response of nLightR to neurotransmitter: 10 μM, HEK293T cells
nLightR [7] = target: T3, nLightR; assay: Intracellular calcium signaling; format: cell-based, sperm whale; conditions: NE 10 μM, HEK293T
nLightG [8] = target: T1, nLightG; assay: Confocal imaging of nLightG in HEK293T cells; format: cell-based, sperm whale; conditions: for fluorescence response of nLightG to neurotransmitter: 10 μM, HEK293T cells
nLightG [9] = target: T1, nLightG; assay: NanoBiT complementation assay in HEK293T cells; format: cell-based, sperm whale; conditions: NE 10 μM
swAlpha-1 AR [10] = assay: NanoBiT complementation assay in HEK293T cells; format: cell-based, sperm whale; conditions: NE 10 μM
[11] = system: optogenetically-evoked NE release; assay: Dual-site fiber photometry in LC and dHPC during optogenetic LC stimulation; format: in vivo, mouse; conditions: desipramine 10 μg/g i.p., awake mice
GRABNE1m [12] = system: GRABNE1m
human DRD1 = conditions: DA 10 μM, DRD1 (positive control)
nLightG [13] = target: T1, nLightG; assay: Ligand perfusion on acute brain slices; set-up: species or system sperm whale
nLightG [14] = target: T1, nLightG; assay: Plate reader dose-response of nLightG in HEK293T cells; format: cell-based, sperm whale
nLightR [15] = target: T3, nLightR; assay: Plate reader dose-response of nLightR in HEK293T cells; format: cell-based, sperm whale
nLightR [16] = target: T3, nLightR; assay: Ligand perfusion on acute brain slices; set-up: species or system sperm whale
GRABNE1m [17] = conditions: HEK293T cells
GRABNE1m [18] = assay: Confocal imaging of GRABNE1m in HEK293T cells; format: cell-based
[19] = system: optogenetically-evoked NE signals; format: in vivo, mouse; conditions: yohimbine 4 mg/kg i.p., vHPC, isoflurane anesthesia, 5 Hz LC stimulation
[20] = system: tail-lift-induced NE release; assay: Fiber photometry in lateral hypothalamus during tail-lifting; format: in vivo, mouse; conditions: trazodone 1 mg/kg or yohimbine 4 mg/kg, i.p., mice
[21] = trazodone 10 μM after NE 50 μM, brain slices
[22] = after NE 10 μM, Trz 10 μM, HEK293T cells and neurons

SMILES: CNCCCN1c2ccccc2CCc2ccccc21 [desipramine]
effect on magnitude and decay kinetics of the nLightG response in LC [11]: significant increase

SMILES: NCCc1ccc(O)c(O)c1 [DA, dopamine]
response to DA relative to response to NE (GRABNE1m [12]; 50 μM, mouse LH brain slices): about 19% | recruitment of β-arrestin-2 (human DRD1): significant recruitment | response to DA relative to response to identical concentration of NE (nLightG [13]; 50 μM, mouse LH brain slices): about 12% | agonist character at nLightG (nLightG [14]): partial agonist | EC50 of DA relative to that of NE (nLightG [14]; nLightG): approximately 30 fold | agonist character at nLightR (nLightR [15]): partial agonist | EC50 of DA relative to that of NE (nLightR [15]; nLightR): approximately 30 fold | response to DA relative to response to identical concentration of NE (nLightR [16]; 50 μM, mouse LH brain slices): ~3% | EC50 [4]: 21.5 µM | EC50 for DA relative to that for NE (GRABNE1m [17]): 8 fold | maximal response to DA as fraction of the response to NE (GRABNE1m [17]): 35% | fluorescence response of nLightR to neurotransmitter (nLightR [6]): significant fluorescence response | fluorescence response of nLightG to neurotransmitter (nLightG [8]): significant fluorescence response

SMILES: COC(=O)[C@@H]1[C@H]2C[C@H]3c4[nH]c5ccccc5c4CCN3C[C@@H]2CC[C@@H]1O [yohimbine]
effect of antagonist on NE-induced activation of GRABNE1m (GRABNE1m [18]): fully inactivated | effect on optogenetically-evoked NE signals monitored via GRABNE1m [19]: significantly attenuated | effect on optogenetically-evoked NE signals reported by nLightG [19]: did not have a significant effect | effect on tail-lift-induced GRABNE1m signals [20]: strongly attenuated | effect on tail-lift-induced response of nLightG [20]: increased | effect on tail-lift-induced response of nLightR [20]: increased

SMILES: O=c1n(CCCN2CCN(c3cccc(Cl)c3)CC2)nc2ccccn12 [trazodone]
effect on NE-induced response (GRABNE1m [12]; [21]): no significant effect | effect on NE-induced response (nLightG [13]; [21]): largely reversed | effect on NE-induced response (nLightR [16]; [21]): largely reversed | effect of antagonist on NE-induced activation of GRABNE1m (GRABNE1m [18]; after NE 10 μM, Trz 100 nM, Yoh 100 nM, HEK293T): not affected | effect on tail-lift-induced GRABNE1m signals [20]: no effect | effect on tail-lift-induced response of nLightG [20]: significantly reduced | effect on tail-lift-induced response of nLightR [20]: significantly reduced | effect of antagonist on NE-induced activation of nLightR (nLightR [6]; [22]): fully reversed | effect of antagonist on NE-induced activation of nLightG (nLightG [8]; [22]): fully reversed

More lines, main results first:

intracellular Ca2+ concentration (nLightG [3]): did not induce a significant increase | EC50 [4]: 0.574 µM | coupling to mini-Gq, mini-Gs or mini-Gi (nLightR [5]): did not lead to a significant coupling | recruitment of β-arrestin-2 (nLightR [5]): no recruitment | fluorescence response of nLightR to neurotransmitter (nLightR [6]): significant fluorescence response | intracellular Ca2+ concentration (nLightR [7]): did not induce a significant increase | fluorescence response of nLightG to neurotransmitter (nLightG [8]): significant fluorescence response | coupling to mini-Gq, mini-Gs or mini-Gi (nLightG [9]): did not lead to a significant coupling | recruitment of β-arrestin-2 (nLightG [9]): no recruitment
SMILES: NC[C@H](O)c1ccc(O)c(O)c1 [NE, norepinephrine]
ΔF/F0 response [1]: approximately 1000% | intracellular Ca2+ concentration (swAlpha-1 AR [2]): significant increase | coupling to mini-Gi (swAlpha-1 AR [10]): no significant coupling | coupling to mini-Gq and mini-Gs (swAlpha-1 AR [10]): significant coupling

fluorescence response of nLightR to neurotransmitter (nLightR [6]): significant fluorescence response | fluorescence response of nLightG to neurotransmitter (nLightG [8]): significant fluorescence response
SMILES: CNC[C@H](O)c1ccc(O)c(O)c1 [epinephrine]
